Source: US20160022620A1, “ENCAPSULATED COMPOSITION FOR BINDING ALDEHYDES IN THE STOMACH” (BIOHIT OYJ, priority 2013, published 2016)

Test: Dissolution test for the capsules (USP I method, pH 1.2 HCl buffer)
Type: physicochemical
Conditions: not granulated; in 5 minutes
Experimental: Dissolution tests were carried out on the capsules of Example 1 according to the USP I method (USP 24) (The United States Pharmacopeia 2001). A standard curve was prepared between 0.01 and 0.6 mg/ml ([…], r^2=0.9999). The medium used was 500 ml of pH 1.2 HCl buffer. The rotation rate of the baskets was 100 rpm, and the temperature of the medium was +37° C. (±0.5). Samples were taken at 5-minute intervals for the first half hour and thereafter at 10-minute intervals for the remaining 2 hours. L-cysteine was detected in flow-through cells (10 mm) at a wavelength of 213 nm. The results were calculated by using dissolution software. The system was equipped with a bath and a pump (Sotax AT7 UV Dissolution System, Stax, Allschwil, Switzerland) and a spectrophotometer (PerkinElmer, Lambda 25, PerkinElmer, Inc., Waltham, Mass.), the software used for the test and for calculating the results was WinSotax (Sotax). […] When not granulated, the L-cysteine was dissolved rapidly (100% in 5 minutes).

## N[C@@H](CS)C(=O)O [L-cysteine]
  L-cysteine dissolved: 100%
